{"source": "patent US20040259865A1", "about": "“Pyrimidone compounds and pharmaceutical compositions containing the same” (priority 2001, published 2004)", "key": {"[1]": {"tested_on": "SD IGS rats", "test": "Evaluation of defecation-promoting action (Tables 8 and 10)", "type": "in vivo, rat", "settings": "3 mg/kg oral; Table 8, n = 4 cages/group", "text": "For example, the defecation-promoting actions of 8-phenyltheophylline (“8-PT” in the table below) and 5-[6-amino-8-(3-fluorophenyl)-9H-9-purinyl]-1-methyl-1,2-di hydro-2-pyridinone (Compound II in the table below) disclosed in Example Number 5 described in WO 2001/2400 were as shown below. 8-PT can be easily produced according to the description of Drug Development Research 47: 45-53 (1999), or is easily available as a commercial product (in this test, it was purchased from Sigma).\nThat is, SD IGS rats (6- to 7-weeks-old, from Charles River) were placed in cages (3 animals/cage) and preliminarily allowed food and water ad libitum and raised for 1 week. On the day of the experiment, their weight was measured, a water-absorbing sheet was placed below each cage, and the animals were fasted but allowed water ad libitum throughout the experiment. Thee hours after fasting was initiated, the fecal pellets were recovered from each cage and observed for abnormality before the experiment, and then the compound suspended in 0.5% (w/v) methyl cellulose (MC) was orally administered in a dose of 5 ml/kg. On one hand, 0.5% (w/v) MC only was orally given to the control group. After administration of the compound, the rats were returned to the cage provided with a new water-absorbing sheet, and 180 minutes after the administration, the fecal pellets on the water-absorbing sheet were recovered from each cage, and the external appearance was observed, and the number of fecal pellets was counted. The number of fecal pellets is expressed per each cage."}, "[2]": {"tested_on": "colon tract", "test": "Inhibitory effect of adenosine receptor antagonist on suppressing action of NECA on Carbachol-stimulated contraction of the colon tract", "design": "species or system rat", "settings": "for Contraction (%) Mean: Carbachol 0.3 μM + NECA 1 μM = 0%, Carbachol 0.3 μM = 100%; for Inhibition of the suppressing effect of NECA on the contraction (in words): rat colon tract, Carbachol + NECA", "experimental": "The abdomen of a rat under anesthesia with ether was opened, and from the rectum to the cecum was excised therefrom and soaked in ice-cooled Tyrode solution (containing 136 mM NaCl, 2.7 mM KCl, 0.4 mM NaH2PO4.2H2O, 5.6 mM glucose, 11.9 mM NaHCO3, 1 mM MgCl2.6H2O, 1.8 mM CaCl2). Surrounding connective tissues were removed, and the intestinal tract was cut at positions apart by 1.5 cm from the rectum and by 3 cm from the cecum, to give a colon tract of about 3 cm in full length. Both the terminals of the colon tract were pinched respectively with Serrefines (trade name) to which a string had been connected, and the colon tract with the side of the cecum facing upward was immediately suspended in a Magnus tube filled with Tyrode solution previously warmed at 37° C., and then equilibrated by bubbling with a gas (O2/CO2=95/5). The string connected to the Serrefines (trade name) at the side of the cecum was suspended, and the change in the length of the colon tract was detected with an amplifier for strain pressure (Nihon Kohden Corporation).\nIn the experiment, 3 samples were used."}, "[3]": {"test": "Urine volume / diuretic action in rat (Test Example 2)", "type": "in vivo", "settings": "for Urine Volume (g/100 g body weight): 180 minutes", "experimental": "(§1) SD IGS rats (6-weeks-old, from Charles River) were placed in cages (3 animals/cage) and preliminarily allowed food and water ad libitum and raised for 1 week. On the day of the experiment, their weight was measured, a water-absorbing sheet was placed below each cage, and the animals were fasted but allowed water ad libitum throughout the experiment. Three hours after fasting was initiated, the fecal pellets were recovered from each cage and observed for abnormality before the experiment, and then the compound suspended or dissolved in 0.5% (W/V) methyl cellulose (MC) was orally administered into each rat in a dose of 5 ml/kg. On one hand, 0.5% (W/V) MC only was orally given to the control group. After administering the compound, the rats were returned to the cage provided with anew water-absorbing sheet of known weight, and 180 minutes after the administration, the fecal pellets on the water-absorbing sheet were recovered from each cage, and the external appearance was observed, and the number of fecal pellets was counted. The number of fecal pellets is expressed per each cage (Table 4). After the fecal pellets were recovered, the water-absorbing sheet was weighed, and the weight determined by subtracting the initial weight of the water-adsorbing sheet from the weight after the experiment was regarded as the volume of urine and expressed as the volume of urine per 100 g of the body weight (Table 4)."}, "[4]": {"molecular_target": "T1, human adenosine A1 receptor (Homo sapiens, UniProt P30542)", "T1 sequence (P30542 1-326)": "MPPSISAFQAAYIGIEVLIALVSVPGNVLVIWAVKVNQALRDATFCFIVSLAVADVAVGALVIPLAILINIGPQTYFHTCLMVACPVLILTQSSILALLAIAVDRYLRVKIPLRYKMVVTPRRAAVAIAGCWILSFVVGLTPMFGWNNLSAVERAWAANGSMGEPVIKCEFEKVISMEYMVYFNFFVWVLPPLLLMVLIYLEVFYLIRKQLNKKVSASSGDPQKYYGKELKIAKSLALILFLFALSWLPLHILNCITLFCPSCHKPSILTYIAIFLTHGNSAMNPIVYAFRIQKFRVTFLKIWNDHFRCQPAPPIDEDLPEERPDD", "test": "Ability to bind to adenosine A1 receptor (3H-CCPA)", "type": "binding", "settings": "CHOK1 membranes, Cheng-Prusoff", "experimental": "To 0.45 ml of this membrane sample suspension were added 0.025 ml of 60 nM tritium-labeled chlorocyclopentyl adenosine (3H-CCPA, from NEN Ltd.) and 0.025 ml test compound. This mixture was left at 30° C. for 120 minutes, filtered rapidly under suction through a glass fiber filter (GF/B, from Whatman), and immediately washed twice with 5 ml of 50 mM water-cooled Tris-HCl buffer. Thereafter, the glass fiber filter was transferred to a vial, a scintillator was added thereto, and the radioactivity on the filter was measured by a liquid scintillation counter.\nInhibition (%)=[1−{binding in the presence of the test compound-non-specific binding)/(total binding-non-specific binding)}]×100\nIn the above formula, the total binding means ^3H—CCPA-bound radioactivity in the absence of the test compound; the non-specific binding means ^3H-CCPA-bound radioactivity in the presence of 100 μM RPIA ([R]-[1-methyl-2-phenylethyl]adenosine); and the binding in the presence of the test compound means ^3H-CCPA-bound radioactivity in the […] of the test compound at predetermined concentrations. The inhibition constant (Ki value) in the table was determined from the formula of Cheng-Prusoff."}, "[5]": {"tested_on": "SD IGS rats", "test": "Defecation-promoting action in rat (Test Example 2)", "type": "in vivo", "settings": "for The number of fecalpellets/3 rats: 180 minutes after administration; for Defecation-promoting action (in words): Table 4", "experimental": "as §1"}, "[6]": {"molecular_target": "T2, human adenosine A2b receptor (Homo sapiens, UniProt P29275)", "T2 construct": "expressed in transfected cells; host or cells: CHOK1 cells", "T2 sequence (P29275 1-332)": "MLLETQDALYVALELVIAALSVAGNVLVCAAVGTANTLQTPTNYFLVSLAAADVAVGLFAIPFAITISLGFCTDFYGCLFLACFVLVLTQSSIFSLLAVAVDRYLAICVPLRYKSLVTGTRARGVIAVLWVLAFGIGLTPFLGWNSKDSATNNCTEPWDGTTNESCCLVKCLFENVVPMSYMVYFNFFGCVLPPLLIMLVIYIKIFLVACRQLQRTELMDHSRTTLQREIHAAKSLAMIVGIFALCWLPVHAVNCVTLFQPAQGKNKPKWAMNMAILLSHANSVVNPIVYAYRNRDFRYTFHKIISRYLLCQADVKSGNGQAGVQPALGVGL", "test": "Inhibition of NECA-stimulated production of cAMP in adenosine A2b receptor-expressing cells", "type": "cell-based", "experimental": "CHOK1 cells where a human adenosine A2b receptor had been expressed in excess were plated onto a 24-well plate at a density of 1.5×10^5 cells/well, cultured overnight, and used in the experiment. […] That is, the adhering cells were washed twice with 2 ml/well Krebs-Ringer buffer solution (containing 0.1% BSA; pH 7.4) and pre-incubated for 30 minutes in a volume of 0.5 ml/well. […] After pre-incubation for 15 minutes, the reaction was terminated with 0.1 N HCl in a volume of 300 μl/well. Measurement of intracellular cAMP was carried out using a cAMP enzyme immunoassay kit produced by Amersham."}, "[7]": {"tested_on": "SD IGS rats", "test": "Contribution of A2b inhibition to defecation-promoting action (Test Example 3)", "type": "in vivo, rat", "settings": "180 minutes", "experimental": "as §1\nAfter administering the compounds, the rats were returned to the cage under which a new water-absorbing sheet had been installed, and after 180 minutes, the fecal pellets on the water-absorbing sheet were recovered from each cage, and the outward appearance was observed and the number of fecal pellets was counted. The number of fecal pellets is expressed per cage (Table 5)."}}, "note": "Values joined by “and” are separate entries in the source; they are usually repeats but may differ in a detail not shown here. Equal values may be shown once."}
{"molecule": "Nc1ncc(-c2ccncc2)c(-c2ccco2)n1", "note": "[Compound I, 4-(2-Furyl)-5-(4-pyridyl)-2-pyrimidinyl amine]", "values": [{"measurement": "The number of fecalpellets/3 rats", "setting": "[1]", "result": "19.75 ± 2.50 fecalpellets/3 rats and 20.75 ± 3.15 fecalpellets/3 rats"}, {"measurement": "Contraction (%) Mean", "setting": "[2]; antagonist 0.1 μM", "result": 71.5, "unit": "%"}, {"measurement": "Contraction (%) Mean", "setting": "[2]; antagonist 0.4 μM", "result": 111.0, "unit": "%"}, {"measurement": "Contraction (%) Mean", "setting": "[2]; antagonist 1.4 μM", "result": 122.0, "unit": "%"}, {"measurement": "Contraction (%) Mean", "setting": "[2]; antagonist 4.4 μM", "result": 85.9, "unit": "%"}, {"measurement": "Inhibition of the suppressing effect of NECA on the contraction (in words)", "setting": "[2]", "result": "inhibited the suppressing effect of NECA on the contraction"}, {"measurement": "Urine Volume (g/100 g body weight)", "setting": "[3]; 3 mg/kg oral", "result": "0.79 ± 0.09", "unit": "g/100 g body weight"}, {"measurement": "Urine Volume (g/100 g body weight)", "setting": "[3]; 10 mg/kg oral", "result": "1.23 ± 0.13", "unit": "g/100 g body weight"}, {"measurement": "Diuretic action (comparison in words)", "setting": "[3]; rat, oral", "result": "weaker diuretic action than the A1-selective antagonist KW3902"}, {"measurement": "Ki", "setting": "[4]", "result": 660, "unit": "nM"}, {"measurement": "The number of fecalpellets/3 rats", "setting": "[5]; 3 mg/kg oral", "result": "16.33 ± 1.82", "unit": "fecalpellets/3 rats"}, {"measurement": "The number of fecalpellets/3 rats", "setting": "[5]; 10 mg/kg oral", "result": "30.00 ± 2.79", "unit": "fecalpellets/3 rats"}, {"measurement": "Diarrhea", "setting": "[5]; rat, oral", "result": "did not cause diarrhea"}, {"measurement": "Defecation-promoting action (in words)", "setting": "[5]; rat, oral", "result": "evidently higher defecation-promoting action than the A1-selective antagonist KW3902 or the A2a-selective antagonist KW6002"}, {"measurement": "IC50", "setting": "[6]", "result": 8.4, "unit": "nM"}, {"measurement": "The number of fecalpellets/3 rats", "setting": "[7]; 3 mg/kg, without KW 6002", "result": "34.00 ± 1.00", "unit": "fecalpellets/3 rats"}]}
{"molecule": "CCn1c(=O)c2c(nc(/C=C/c3ccc(OC)c(OC)c3)n2C)n(CC)c1=O", "note": "[KW 6002]", "values": [{"measurement": "Contraction (%) Mean", "setting": "[2]; antagonist 0.1 μM", "result": 5.2, "unit": "%"}, {"measurement": "Contraction (%) Mean", "setting": "[2]; antagonist 0.4 μM", "result": 1.1, "unit": "%"}, {"measurement": "Contraction (%) Mean", "setting": "[2]; antagonist 1.4 μM", "result": "−2.9", "unit": "%"}, {"measurement": "Contraction (%) Mean", "setting": "[2]; antagonist 4.4 μM", "result": "−3.9", "unit": "%"}, {"measurement": "Inhibition of the suppressing effect of NECA on the contraction (in words)", "setting": "[2]", "result": "did not show any inhibitory effect"}, {"measurement": "Urine Volume (g/100 g body weight)", "setting": "[3]; 1 mg/kg oral", "result": "0.72 ± 0.07", "unit": "g/100 g body weight"}, {"measurement": "Urine Volume (g/100 g body weight)", "setting": "[3]; 3 mg/kg oral", "result": "0.76 ± 0.05", "unit": "g/100 g body weight"}, {"measurement": "Ki", "setting": "[4]", "result": 22600, "unit": "nM"}, {"measurement": "The number of fecalpellets/3 rats", "setting": "[5]; 1 mg/kg oral", "result": "6.67 ± 1.63", "unit": "fecalpellets/3 rats"}, {"measurement": "The number of fecalpellets/3 rats", "setting": "[5]; 3 mg/kg oral", "result": "7.00 ± 0.86", "unit": "fecalpellets/3 rats"}, {"measurement": "Defecation-promoting action (in words)", "setting": "[5]; rat, oral", "result": "low defecation-promoting action"}, {"measurement": "The number of fecalpellets/3 rats", "setting": "[7]; KW 3902 0 mg/kg + KW 6002 (1 mg/kg)", "result": "7.00 ± 1.58", "unit": "fecalpellets/3 rats"}]}
